In patent publication US20210179632A1, “THIENOPIPERIDINE DERIVATIVE AND USE THEREOF” (JIANGSU TASLY DIYI PHARMACEUTICAL CO. LTD., priority 2013, published 2021):

Tested on: platelet aggregation induced by ADP
Assay: Platelet aggregation induced by ADP in platelet-rich plasma of rats drawn 2 hours after dosing (NJ4 Semi-Platelet Aggregation Analyzer)
Assay type: in vivo
Conditions: male Wistar rats, 3 mg/kg as suspension in 0.25 wt % CMC, blood drawn 2 hours after administration, negative control 61.22 ± 4.73, * P < 0.001
From the text: The maximum aggregation rate of irreversible condensed phase can be used to evaluate the effect of subject products on coagulation function. The experiment used NJ4 type Semi-Platelet Aggregation Analyzer of precil company, to survey the inhibitory effect of the subject products provided by Tasly Holding Group. Co. Ltd on platelet aggregation. • Materials • Animals: male Wistar rats, body weight 230-250 g, bought from Beijing Vital River Laboratory • Animal Technology Co. Ltd., animal certification number:SCXK ( ? ) 2007-0001. • Reagents: ADP, bought from Sigma company; clopidogrel was prepared referring to the method in Chinese Journal of Medicinal Chemistry 2007, 17 (3) 163-165; prasugrel was prepared referring to the method in Chinese Journal of Pharmaceuticals 2012, 43 (8) 647-649; vicagrel was prepared referring to the method in Journal of Medicinal Chemistry, 2012, 55(7), 3342-3352. • Subject products: 7 subject products were all provided by Tasly Holding Group. Co. Ltd. • Administration dosage: subject products were suspensed in CMC in a concentration of 0.25 wt %, were administered in a dosage of 3 mg/kg body weight, the administration volume was 2 ml.
2 hours after administering drugs to the rats, anesthesia with mebubarbital, draw blood from abdominal aorta, anticoagulation with sodium citrate 1:9. Obtained platelet-rich plasma and platelet-poor plasma by centrifugation, the volume ratio of the two was platelet-poor plasma:platelet-rich plasma=3:1.

Structure (SMILES) | The maximum aggregation rate of platelet irreversible condensed phase
COC(=O)[C@H](c1ccccc1Cl)N1CCc2sccc2C1 [Clopidogrel, reference compound] | 46.77 ± 8.28*
CC(=O)Oc1cc2c(s1)CCN(C(C(=O)C1CC1)c1ccccc1F)C2 (stereo not drawn) [Prasugrel, prasugrel, reference compound] | 20.72 ± 18.84*
COC(=O)[C@H](c1ccccc1Cl)N1CCc2sc(OP(=O)(OC)OC)cc2C1 [TSC-1] | 45.8 ± 3.55*
CCOP(=O)(OCC)Oc1cc2c(s1)CCN([C@H](C(=O)OC)c1ccccc1Cl)C2 [TSC-2] | 41.7 ± 7.43*
COC(=O)[C@H](c1ccccc1Cl)N1CCc2sc(OP(=O)(OC(C)C)OC(C)C)cc2C1 [TSC-3] | 38.7 ± 4.27*
COC(=O)[C@H](c1ccccc1Cl)N1CCc2sc(OP(=O)(Oc3ccccc3)Oc3ccccc3)cc2C1 [TSC-4] | 46.5 ± 8.16*
COC(=O)[C@H](c1ccccc1Cl)N1CCc2sc(OP(=O)(OCC(Cl)(Cl)Cl)OCC(Cl)(Cl)Cl)cc2C1 [TSC-5] | 39.1 ± 5.66*
COC(=O)[C@H](c1ccccc1Cl)N1CCc2sc(OP(=O)(O)O)cc2C1 [TSC-6] | 29.6 ± 5.33*
COC(=O)[C@H](c1ccccc1Cl)N1CCc2sc(OCOP(=O)(OC(C)(C)C)OC(C)(C)C)cc2C1 [TSC-7] | 39.2 ± 6.16*
COC(=O)[C@H](c1ccccc1Cl)N1CCc2sc(OCOP(=O)(O)O)cc2C1 [TSC-8] | 32.7 ± 9.21*
COC(=O)[C@H](c1ccccc1Cl)N1CCc2sc(OS(=O)(=O)O)cc2C1 [TSC-9] | 25.7 ± 3.25*
COC(=O)[C@H](c1ccccc1Cl)N1CCc2sc(OC(C)=O)cc2C1 [Vicagrel, vicagrel, reference compound] | 32.36 ± 5.14*
